Results: publication PMC6274284 (Molecules, 2016)

What was measured:
hGRX1 [1] = target: T1, hGRX1 (Homo sapiens, UniProt P35754, C83S); format: binding
hGRX1 [2] = target: T1, hGRX1; assay: biochemical; format: binding
hGRX1 [3] = target: T1, hGRX1; format: binding; remark: listed apart in the source

T1 sequence (P35754 whole entry C83S, looked up): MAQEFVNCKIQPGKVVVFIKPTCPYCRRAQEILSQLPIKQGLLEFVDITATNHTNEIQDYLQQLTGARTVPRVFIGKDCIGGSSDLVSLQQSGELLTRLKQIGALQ

With `COC(=O)c1cccc2cc[nH]c12` [RK028] the “MaxRel.STD hGRX1” value (hGRX1 [1]) was 11.2%.

In the case of `C=CC(=O)NCc1ccn(-c2ccc(C(=O)OC)cc2)c1` [compound 5, Methyl 4-(3-(Acrylamidomethyl)-1H-pyrrol-1-yl)benzoate], the “Enhancement of rate of reaction over naked acrylamide, hGRX” value (hGRX) is reported as “about 35 fold”.

For `Cn1nc(C(=O)O)cc1-c1ccccc1` [RK246], the Kd (hGRX1 [2]) was 5.22 ± 1.16 mM and the “MaxRel.STD hGRX1” value (hGRX1 [1]) was 0.6%.

With `Nc1ccccc1N1CCNCC1` [RK155] the “trNOE binding result, hGRX1” value (hGRX1 [3]) was “did not bind”.

With `COCc1cc(=O)oc2cc(O)c(Cl)cc12` [RK450] the “MaxRel.STD hGRX1” value (hGRX1 [1]) was 37.1%.

With `Nc1ccc(CN2CCOCC2)cc1` [RK428] the “MaxRel.STD hGRX1” value (hGRX1 [1]) was 0.6%.

In the case of `C=CC(N)=O` [acrylamide, reference compound], the “Reaction half life, hGRX” value (hGRX; human) is reported as “about 20 h”.

For `OCc1cc(-c2cccs2)[nH]n1` [RK126], the “MaxRel.STD hGRX1” value (hGRX1 [1]) was 23.4%.

With `O=C(O)c1ccc(-n2cccc2)cc1` [RK207] the Kd (hGRX1 [2]) was 2.45 ± 0.52 mM and the “MaxRel.STD hGRX1” value (hGRX1 [1]) was 0.5%.

`COCc1cc(=O)oc2cc(N)ccc12` [RK411] was tested, and the “MaxRel.STD hGRX1” value (hGRX1 [1]) was 13.7%.

`O=C(O)c1ccc(-c2cnco2)cc1` [RK036] was tested, and the “MaxRel.STD hGRX1” value (hGRX1 [1]) was 2.1%.
